Results: patent publication US5336763A, “Trisazo dye and dye composition containing the same” (Orient Chemical Industries, Ltd., priority 1992, dated 1994)
Like-named read-outs stand apart in the source and are kept apart here.

Assays:
[1] = background; cited from earlier work
strains TA98 = format: cell-based
Method: Regarding various specimen solutions respectively containing trisazo dyes obtained in Examples 1 to 11 to the present invention and dyes of Comparative Examples 1 to 3, the number of mutant colonies was determined using strains TA98. 2. When the ratio is less than 2, it is "negative" and, when the ratio is more than 2, it is "positive", and the results are shown in Table. 1.

Question: For `Nc1ccc(N=Nc2ccc(N=Nc3c(S(=O)(=O)[O-])cc4cc(S(=O)(=O)[O-])c(N=Nc5ccc(N=Nc6ccc(N)cc6N)cc5)c(O)c4c3N)cc2)c(N)c1.[Na+].[Na+]` [C.I. Direct Black 19], which Ames test [1] is on record?
Answer: false positive or positive

Question: For `Cc1cc(-c2ccc(N=Nc3c(S(=O)(=O)[O-])cc4cc(S(=O)(=O)[O-])c(N=Nc5ccccc5)c(O)c4c3N)c(C)c2)ccc1N=Nc1ccc(N)cc1N.[Na+].[Na+]` [C.I. Direct Black 154], which Ames test [1] is on record?
Answer: false positive or positive

Question: With `Cc1cc(-c2ccc(N=Nc3c(S(=O)(=O)O)cc4cc(S(=O)(=O)O)c(N=Nc5ccc(S(=O)(=O)O)cc5)c(O)c4c3N)c(C)c2)ccc1N=Nc1ccc(O)cc1O` [compound 3, reference compound] as the molecule, how does the “Ames test: ratio of number of colonies to control” value (“Ames test: ratio” for short) (strains TA98; 20 μg/plate, with S-9) read?
Answer: 1.20

Question: And the “Ames test: ratio” value (strains TA98; 20 μg/plate, without S-9)?
Answer: 0.92

Question: And the “Ames test: ratio” value (strains TA98; 78 μg/plate, with S-9)?
Answer: 2.24

Question: What about the “Ames test: ratio” value (strains TA98; 78 μg/plate, without S-9) of the same molecule?
Answer: 1.00

Question: And the “Ames test: ratio” value (strains TA98; 313 μg/plate, with S-9)?
Answer: 4.16

Question: And the “Ames test: ratio” value (strains TA98; 313 μg/plate, without S-9)?
Answer: 2.56

Question: What about the “Ames test: ratio” value (strains TA98; 1250 μg/plate, with S-9) of the same molecule?
Answer: 1.12

Question: And the “Ames test: ratio” value (strains TA98; 1250 μg/plate, without S-9)?
Answer: 3.56

Question: And the “Ames test: ratio” value (strains TA98; 5000 μg/plate, with S-9)?
Answer: 0.16

Question: And the “Ames test: ratio” value (strains TA98; 5000 μg/plate, without S-9)?
Answer: 0.96

Question: And the AMES evaluation (strains TA98; strains TA98)?
Answer: Positive (when the ratio is more than 2, it is "positive")

Question: With C.I. Direct Black 168 as the molecule, how does the Ames test [1] read?
Answer: false positive or positive
